Test results published in US20240287138A1, “CYCLIC PEPTIDES FOR INHIBITING TNF RECEPTOR 1 ACTIVITY” (Merck Sharp & Dohme LLC, priority 2023, published 2024).
Numbered stars: 1 amine (or outer) side, 2 acyl side, 3 side chain; on linkers, the order of the positions; unused ones are H or OH. Bridge positions count the residues as written; N and C are the ends. Square brackets hold non-standard residues; d marks the D form. Peptide text beside a SMILES is read from it. * marks the point of attachment. Trp(βS-Me,7-OMe) = COc1cccc2c([C@H](C)[C@H](N)C(=O)O)c[nH]c12; Morpholine(3S-CO,6,6-Me2) = CC1(C)CN[C@H](C(=O)O)CO1; dPro(trans-4-NMe2) = CN(C)[C@@H]1CN[C@@H](C(=O)O)C1; Trp(7-CN) = N#Cc1cccc2c(C[C@H](N)C(=O)O)c[nH]c12; Trp(7-Cl) = N[C@@H](Cc1c[nH]c2c(Cl)cccc12)C(=O)O; Phe(3-CONH2) = NC(=O)c1cccc(C[C@H](N)C(=O)O)c1; Phe(4-CONH2) = NC(=O)c1ccc(C[C@H](N)C(=O)O)cc1; Phe(4-COOH) = N[C@@H](Cc1ccc(C(=O)O)cc1)C(=O)O; Trp(7-aza) = N[C@@H](Cc1c[nH]c2ncccc12)C(=O)O; Phe(4-CH2NH2) = NCc1ccc(C[C@H](N)C(=O)O)cc1; Pip(5R-OH) = O=C(O)[C@@H]1CC[C@@H](O)CN1; αMeW = C[C@](N)(Cc1c[nH]c2ccccc12)C(=O)O; X1 = O=C([C@@H]1CC[C@H](N[*:1])C1)[*:2]; d(cisHyp) = O=C(O)[C@H]1C[C@@H](O)CN1; X31 = O=C(CN(CCc1nnco1)[*:1])[*:2]; Pip(4-aza) = O=C(O)[C@@H]1CNCCN1; 4Pal = N[C@@H](Cc1ccncc1)C(=O)O; NMeE = CN[C@@H](CCC(=O)O)C(=O)O; Ahp(2) = CCCCC[C@H](N)C(=O)O; αMeS = C[C@](N)(CO)C(=O)O; Carboxymethyl = O=C(O)C*; Nle = CCCC[C@H](N)C(=O)O; Sar = CNCC(=O)O

What was measured:
[1] = target: T1, human TNFR1 extracellular domain (ECD) protein (Homo sapiens, UniProt P19438); experiment: SPR binding affinity to captured human TNFR1 ECD
T1 construct: HRV 3C protease cleavage site (C); 6His (C, cleaved yes); made in house; host or cells: Sf21 insect cells (baculovirus), secreted
T1 sequence (P19438 30-211): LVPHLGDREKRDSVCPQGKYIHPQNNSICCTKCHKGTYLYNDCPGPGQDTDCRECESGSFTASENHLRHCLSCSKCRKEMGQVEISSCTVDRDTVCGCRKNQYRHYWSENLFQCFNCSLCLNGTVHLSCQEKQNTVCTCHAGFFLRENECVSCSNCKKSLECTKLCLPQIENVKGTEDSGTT
Procedure, shortened: (§1)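 Biotinylated avi-tagged human TNFR1 or TNFR2 ECD, expressed in Sf21 insect cells, captured on streptavidin SPR chip; peptide analytes run in 10 mM HEPES pH 7.4, 150 mM NaCl, 3 mM EDTA, 0.05% P20, 2% DMSO. kon and koff measured, affinity KA calculated.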

[2] = target: T2, human soluble TNFR1 (sTNFR1) (Homo sapiens, UniProt P19438); experiment: Human sTNFR1-peptide displacement assay (LanthaScreen Eu TR-FRET binding assay)
T2 construct: made in house; host or cells: Sf21 (baculovirus)
T2 sequence (P19438 with tags, fused parts or gaps): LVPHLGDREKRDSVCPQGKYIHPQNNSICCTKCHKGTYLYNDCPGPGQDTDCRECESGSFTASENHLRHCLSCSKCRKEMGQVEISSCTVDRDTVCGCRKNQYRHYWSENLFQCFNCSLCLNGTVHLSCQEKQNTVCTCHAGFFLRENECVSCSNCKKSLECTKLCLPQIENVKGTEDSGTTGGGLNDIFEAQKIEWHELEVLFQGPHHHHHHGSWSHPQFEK
Procedure, shortened: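 Readout is the 665/615 nm TR-FRET ratio (Eu anti-His donor, streptavidin-Alexa647 acceptor), normalized to DMSO and saturating displacer, fit by Morrison-based five-parameter logistic for Kd^app. His-tagged sTNFR1 (1-211) prebound to 100 nM biotinylated peptide SEQ ID NO.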

[3] = target: T3, human TNFR2 ECD protein (Homo sapiens, UniProt P20333); experiment: SPR off-target binding (selectivity) to human TNFR2 ECD
T3 construct: HRV 3C protease cleavage site (C); 6His (C, cleaved yes); made in house; host or cells: Sf21 insect cells (baculovirus), secreted
T3 sequence (P20333 23-257): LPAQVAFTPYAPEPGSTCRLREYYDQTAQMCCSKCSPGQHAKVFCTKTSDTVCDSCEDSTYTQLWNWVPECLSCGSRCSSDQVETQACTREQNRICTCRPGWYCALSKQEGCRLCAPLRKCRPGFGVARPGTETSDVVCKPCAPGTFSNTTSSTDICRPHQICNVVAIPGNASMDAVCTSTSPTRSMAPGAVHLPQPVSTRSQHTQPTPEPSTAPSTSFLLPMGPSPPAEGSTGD
Procedure, shortened: as §1

Work on `CCCC[C@@H]1NC(=O)CSC[C@@H](C(N)=O)NC(=O)[C@H]([C@@H](C)c2c[nH]c3c(OC)cccc23)NC(=O)CN(C)C(=O)[C@H](Cc2ccc(O)cc2)NC(=O)[C@H](Cc2ccc(C(=O)O)cc2)NC(=O)[C@](C)(CO)NC(=O)[C@H](Cc2c[nH]c3c(Cl)cccc23)NC(=O)[C@H](Cc2ccc(OCC(=O)O)cc2)NC(=O)[C@H](CC(N)=O)NC(=O)[C@H](CCC(=O)O)N(C)C(=O)[C@H](Cc2c[nH]c3ccccc23)NC(=O)[C@@H]2COC(C)(C)CN2C(=O)[C@H](Cc2ccncc2)NC1=O` [SEQ ID NO. 179] ({CH2CO}-[Nle][4Pal][Morpholine(3S-CO,6,6-Me2)]W[NMeE]NY(Carboxymethyl)[Trp(7-Cl)][αMeS][Phe(4-COOH)]Y[Sar][Trp(βS-Me,7-OMe)]C-NH2; thioether N-14) yielded a Kd [1] of 0.14 nM, an IC50 [2] of 0.5 nM and a Kd [2] of 0.29 nM. For the same compound, the Kd [3] was greater than 1000 nM.

With `CCCC[C@@H]1NC(=O)CSC[C@@H](C(N)=O)NC(=O)[C@H]([C@@H](C)c2c[nH]c3c(OC)cccc23)NC(=O)CN(C)C(=O)[C@H](Cc2ccc(O)cc2)NC(=O)[C@H](Cc2ccc(C(=O)O)cc2)NC(=O)[C@](C)(CO)NC(=O)[C@H](Cc2c[nH]c3c(Cl)cccc23)NC(=O)[C@H](Cc2ccncc2)NC(=O)[C@H](CC(N)=O)NC(=O)[C@H]2C[C@@H](O)CN2C(=O)[C@H](Cc2c[nH]c3ncccc23)NC(=O)[C@@H]2CNCCN2C(=O)[C@H](Cc2ccncc2)NC1=O` [SEQ ID NO. 261] ({CH2CO}-[Nle][4Pal][Pip(4-aza)][Trp(7-aza)][d(cisHyp)]N[4Pal][Trp(7-Cl)][αMeS][Phe(4-COOH)]Y[Sar][Trp(βS-Me,7-OMe)]C-NH2; thioether N-14) the Kd [1] was 0.2 nM, the IC50 [2] was 0.4 nM and the Kd [2] was 0.3 nM. For the same compound, the Kd [3] was greater than 1000 nM.

`CCCC[C@@H]1NC(=O)[C@@H]2CC[C@@H](C2)NC(=O)[C@H]([C@@H](C)c2c[nH]c3c(OC)cccc23)NC(=O)CN(C)C(=O)[C@H](Cc2ccc(C(=O)O)cc2)NC(=O)[C@H](Cc2ccc(C(N)=O)cc2)NC(=O)[C@](C)(CO)NC(=O)[C@H](Cc2c[nH]c3c(C#N)cccc23)NC(=O)[C@H](Cc2ccncc2)NC(=O)[C@H](CC(N)=O)NC(=O)CN(CCc2nnco2)C(=O)[C@H](Cc2c[nH]c3ncccc23)NC(=O)[C@@H]2CC[C@@H](O)CN2C(=O)[C@H](Cc2ccncc2)NC1=O` [SEQ ID NO. 121] (cyclo([4Pal][Trp(7-CN)][αMeS][Phe(4-CONH2)][Phe(4-COOH)][Sar][Trp(βS-Me,7-OMe)][X1][Nle][4Pal][Pip(5R-OH)][Trp(7-aza)][X31]N)) was tested, and the Kd [1] was 0.02 nM, the Kd [2] was 0.07 nM and the Kd [3] was greater than 1000 nM.

In the case of `CCCCC[C@@H]1NC(=O)[C@@H]2CC[C@@H](C2)NC(=O)[C@H]([C@@H](C)c2c[nH]c3c(OC)cccc23)NC(=O)CN(C)C(=O)[C@H](Cc2cccc(C(N)=O)c2)NC(=O)[C@H](Cc2ccc(C(N)=O)cc2)NC(=O)[C@](C)(CO)NC(=O)[C@H](Cc2c[nH]c3c(C#N)cccc23)NC(=O)[C@H](Cc2ccc(C(=O)O)cc2)NC(=O)[C@H](CC(N)=O)NC(=O)[C@H]2C[C@H](N(C)C)CN2C(=O)[C@H](Cc2c[nH]c3ccccc23)NC(=O)[C@@H]2CC[C@@H](O)CN2C(=O)[C@H](Cc2ccncc2)NC1=O` [SEQ ID NO. 128] (cyclo([4Pal][Pip(5R-OH)]W[dPro(trans-4-NMe2)]N[Phe(4-COOH)][Trp(7-CN)][αMeS][Phe(4-CONH2)][Phe(3-CONH2)][Sar][Trp(βS-Me,7-OMe)][X1][Ahp(2)])), the Kd [1] is reported as 0.02 nM, the Kd [2] is reported as 0.09 nM and the Kd [3] is reported as greater than 1000 nM.

`CCCC[C@@H]1NC(=O)CSC[C@@H](C(N)=O)NC(=O)[C@](C)(Cc2c[nH]c3ccccc23)NC(=O)CN(C)C(=O)[C@H](Cc2ccc(O)cc2)NC(=O)[C@H](Cc2cccc(C(N)=O)c2)NC(=O)[C@](C)(CO)NC(=O)[C@H](Cc2c[nH]c3c(Cl)cccc23)NC(=O)[C@H](Cc2ccncc2)NC(=O)[C@H](CC(N)=O)NC(=O)[C@H](CCC(=O)O)N(C)C(=O)[C@H](Cc2c[nH]c3ncccc23)NC(=O)[C@H](CO)NC(=O)[C@H](Cc2ccc(CN)cc2)NC1=O` [SEQ ID NO. 205] ({CH2CO}-[Nle][Phe(4-CH2NH2)]S[Trp(7-aza)][NMeE]N[4Pal][Trp(7-Cl)][αMeS][Phe(3-CONH2)]Y[Sar][αMeW]C-NH2; thioether N-14) showed a Kd [1] of 0.6 nM, a Kd [2] of 1.01 nM and a Kd [3] greater than 1000 nM.
